In the NIST ThermoML archive (doi:10.1016/j.tca.2012.07.034):

Settings: Liquid, DSC

CCCCCCCC/C=C\CCCCCCCC(=O)O [(Z)-9-octadecenoic acid]
Settings	vapor or sublimation pressure [kPa]
496.7 K	1.333
513.1 K	2.666
524.7 K	4
532.1 K	5.333
538.8 K	6.666
543.8 K	7.999
547.4 K	9.333

CCCCCCCCCCCC(=O)O [dodecanoic acid]
Settings	vapor or sublimation pressure [kPa]
444.6 K	1.333
458.9 K	2.666
468.5 K	4
475 K	5.333
479.6 K	6.666
484.8 K	7.999
490.5 K	9.333

CCCCCCCCCCCCCCCC(=O)O [hexadecanoic acid]
Settings	vapor or sublimation pressure [kPa]
483.3 K	1.333
498.6 K	2.666
509 K	4
517.3 K	5.333
523.4 K	6.666
527.9 K	7.999
533.4 K	9.333

CCCCCCCCCCCCCCCCCC(=O)O [octadecanoic acid]
Settings	vapor or sublimation pressure [kPa]
501.3 K	1.333
519.1 K	2.666
528.9 K	4
535.9 K	5.333
543.7 K	6.666
548.7 K	7.999
553.2 K	9.333

CCCCCCCCCCCCCC(=O)O [tetradecanoic acid]
Settings	vapor or sublimation pressure [kPa]
464.6 K	1.333
480.8 K	2.666
489.5 K	4
497.2 K	5.333
503.1 K	6.666
508.2 K	7.999
512.6 K	9.333
